# Patent US7741520B2, “Sulfonanilide analogs as selective aromatase modulators (SAMs)” (The Ohio State University Research Foundation, priority 2006, dated 2010)
# Experiments:
# [1] = tested on: aromatase activity in SK-BR-3 breast cancer cells; assay: Tritiated water-release assay in SK-BR-3 cells (additional compounds); format: cell-based, human; conditions: for IC50: dose-response (FIG. 13), read-out: IC50 (μM), suppression of aromatase activity in SK-BR-3 breast cancer cells
# Protocol: Cell Culture. AR and SK-BR-3 cells were obtained from ATCC (Rockville, Md.). SK-BR-3 cells were maintained in phenol red-free custom media (MEM, Earle's salts, 1.5× amino acids, 2× non-essential amino acids, L-glutamine, 1.5× vitamins, Gibco BRL) supplemented with 10% fetal bovine serum (FBS), 2 mM L-glutamine and 20 mg/L gentamycin. […] Fetal bovine serum was heat inactivated for 30 min in a 56° C. water bath before use. Cell cultures were grown at 37° C., in a humidified atmosphere of 5% CO2 in a Hereaus CO2 incubator. For all experiments, cells were plated in 6 well plates and grown to subconfluency. Before treatment, the media was changed to a defined one containing DMEM/F12 media (Sigma) with 1.0 mg/mL human albumin (OSU Hospital Pharmacy), 5.0 mg/L human transferin and 5.0 mg/L bovine insulin.
# Tritiated water-release assay in JAR and SK-BR-3 cell lines. Measurement of aromatase enzyme activity was based on the tritium water release assay. Cells in six well plates were treated with 0.1% DMSO (control), and inhibitors at the indicated concentrations. After 24 hours, the cells were incubated 3 hours (SK-BR-3 cells) or 1 hour (JAR cells) with fresh media along with 100 nM [1β-^3H]-androst-4-ene-3,17-dione (1 μCi). Subsequently, the reaction mixture was removed, and proteins were precipitated using 10% trichloroacetic acid at 42° C. for 20 min. After a brief centrifugation, the media was extracted three times with an equal amount of chloroform to remove remaining substrate and further treated with dextran-treated charcoal. After centrifugation, a 250-μl aliquot containing the product was counted in 5 ml of liquid scintillation mixture. Results were corrected for blanks and for the cell contents of culture flasks, and results were expressed as picomoles of ^3H2O formed per hour incubation time per million live cells (pmol/h/10^6 cells). To determine the amount of cells in each flask, the cells were lysed and analyzed using the diphenylamine DNA assay adapted to a 96-well plate. IC50 sigmoidal dose-response data were analyzed with Microsoft Excel and the Graphpad Prism (Version 3.0) program.
# Diphenylamine DNA Assay To determine the amount of viable cells in each flask, the cells were lysed with 0.5N NaOH aqueous solution and analyzed using the diphenylamine DNA assay adapted to a 96-well plate. DNA standards (0-30 μg) were prepared using double-stranded DNA reconstituted in PBS and added in triplicates directly to the wells. A uniform cell suspension was prepared from the 6 well plate in 300 μl 0.5N NaOH aqueous solution, and 60 μl of the unknown samples were added in triplicates to separate wells. […] This solution (60 μl) was added to each well along with 100 μl of a 4% diphenylamine solution in glacial acetic acid. The plates were incubated at 37° C. for 24 hours. After centrifugation, 100 μl supernatant of each well was transferred to a new 96 well plate, and the OD595 was measured using a microplater reader. The DNA concentration was determined by extrapolation to the standard curve and the amount of cells/well was calculated using the equation: 1 cell≈7 pg DNA.
# SK-BR-3 cells = assay: Analysis of apoptosis (single-stranded DNA ELISA) in SK-BR-3 cells; format: cell-based, human; conditions: 5 μM, 24 hours (FIG. 16)
# Protocol: Analysis of apoptosis. Apoptosis was determined by selective denaturation of DNA in apoptotic cells by formamide and detection of denatured DNA with a monoclonal antibody to single-stranded DNA using an ELISA kit (CHEMICON, Temecula, Calif.). Cells were plated in a 96-well flat bottom plate from 0.5×10^4 to 1×10^4 cells/well in custom media. Cells were allowed to adhere to wells overnight. Following incubation, compounds were made up in define media and a 5 μM screen was performed in each cell line with respective compounds in triplicate for 24 hours. Following treatment, the plate was centrifuged at 200×g for 5 min, media was removed followed by the addition of 200 μl of fixative. The plate was incubated for 30 min at 37° C., at which point the fixative was removed and the plate dried for 1-2 hours at room temperature. Fifty microliters of formamide was added to each well following a brief incubation at room temperature for 10 min. The DNA in apoptotic cells was denatured by heating the plate for 10 min, then briefly cooling the plate for 5 min at 4° C. following removal of formamide. The plate was rinsed three times with 200 μl of PBS following one hour incubation at 37° C. with 200 μl of 3% blocking agent. After removal of the blocking agent, 100 μl of antibody mixture were added to each well for 30 min at room temperature. The plate was washed three times with 1× wash buffer using 250 μl of wash buffer/well followed by the addition of 200 μl of ABTS solution added to each well for a 15-60 minute incubation. The reaction was stopped by the addition of 100 μl of a stop solution added to each well and absorbance was measured at 405 nm on a SpectroMax 340 UV PlateReader.
Structure (SMILES),IC50 [1],apoptotic effects (SK-BR-3 cells),increase in activity compared with nimesulide ([1]; from IC50 values)
"CN(c1ccc([N+](=O)[O-])cc1OCc1ccc(F)cc1)S(C)(=O)=O [Compound 33c, N-methyl-N-[2-(4′-fluorobenzyloxy)-4-nitrophenyl]methanesulfonamide]",1.78 ± 0.63 µM,do not produce apoptotic effects,
"CN(c1ccc([N+](=O)[O-])cc1OCc1ccccc1)S(C)(=O)=O [Compound 26f, N-methyl-N-(2-benzyloxy-4-nitrophenyl) methanesulfonamide]",0.81 ± 0.29 µM,do not produce apoptotic effects,
"CN(c1ccc([N+](=O)[O-])cc1OCc1ccc2ccccc2c1)S(C)(=O)=O [Compound 28c, N-methyl-N-[2-(β-naphthylmethoxy) 4-nitrophenyl]methanesulfonamide]",2.68 ± 0.91 µM,do not produce apoptotic effects,

# Second part, led by results:
IC50 [1],Structure (SMILES),apoptotic effects (SK-BR-3 cells),increase in activity compared with nimesulide ([1]; from IC50 values)
2.33 ± 0.66 µM,"Cc1ccc(COc2cc([N+](=O)[O-])ccc2N(C)S(C)(=O)=O)cc1 [Compound 30c, N-methyl-N-[2-(4′-methylbenzyloxy)-4-nitrophenyl]methanesulfonamide]",do not produce apoptotic effects,
0.49 ± 0.14 µM,"CN(c1ccc([N+](=O)[O-])cc1OCc1ccc([N+](=O)[O-])cc1)S(C)(=O)=O [Compound 27c, N-methyl-N-[2-(4′-nitrobenzyloxy)-4-nitrophenyl]methanesulfonamide]",do not produce apoptotic effects,
0.33 ± 0.15 µM,"CN(c1ccc([N+](=O)[O-])cc1OCc1ccccc1-c1ccccc1)S(C)(=O)=O [Compound 29c, N-methyl-N-[2-(2′-phenylbenzyloxy)-4-nitrophenyl]methanesulfonamide]",do not produce apoptotic effects,eighty fold increase
